The subject of assay [1] is AMPK(r). Kind of assay: Other kinases, single-concentration inhibition (Table 3). The format is biochemical, rat. The note with it: 1 μM. Here is the method:
(§1) The Aurora and other kinase assays described here were performed on two Caliper Life Sciences systems, the LC3000 and the Desktop Profiler. These provide data on enzyme activity via measurement of the relative amounts of phosphorylated or unphosphorylated fluorescently labelled substrate peptide at the end of an enzymatic reaction. These different states of peptide are resolved by applying a potential difference across the sample. The presence of a charged phosphate group on the product (as opposed to the substrate) causes a different peptide mobility between the two peptides. This is visualized by excitation of a fluorescent label on the substrate and product peptides and represented as peaks within the analysis software.
(§2) The Desktop Profiler utilizes the same principal as the LC 3000 for calculating percentage conversion of a substrate to product. Caliper Life Sciences provided proprietary flash frozen pre-made 384 well plates containing selected kinases. Each column in the 384 well plate contained a particular selected kinase. A second plate, the ‘substrate plate’ contained a mix of fluorescently labeled peptide substrate and ATP. These were arranged in columns so that transfer for substrate plate to enzyme plate provided the correct enzyme with the correct substrate/ATP concentration.
(§3) Compounds were added to a thawed enzyme plate in the desired format, in single concentrations. Reactions were initiated by transfer of the ubstrate/ATP mix from the substrate plate. The enzyme plate was incubated for 90 mins at 25 °C. The reaction was stopped by addition of […] of Stop Buffer (100 mM HEPES pH 7.5, 0.015% Brij-35, 10 mM EDTA (Sigma, E7889)).
(§4) Plates were read in a manner identical to that of the LC3000, and the ratio between substrate and product peaks provided the activity of the enzyme in that well. This was best represented by a plate heat map which colors each well by percent inhibition as compared to positive and negative controls (no inhibitors and no ATP respectively).

Assay [2] deals with T1, FAK(h) (Homo sapiens, UniProt Q05397).
T1 construct: purchased Caliper Life Sciences
T1 sequence (Q05397 whole entry): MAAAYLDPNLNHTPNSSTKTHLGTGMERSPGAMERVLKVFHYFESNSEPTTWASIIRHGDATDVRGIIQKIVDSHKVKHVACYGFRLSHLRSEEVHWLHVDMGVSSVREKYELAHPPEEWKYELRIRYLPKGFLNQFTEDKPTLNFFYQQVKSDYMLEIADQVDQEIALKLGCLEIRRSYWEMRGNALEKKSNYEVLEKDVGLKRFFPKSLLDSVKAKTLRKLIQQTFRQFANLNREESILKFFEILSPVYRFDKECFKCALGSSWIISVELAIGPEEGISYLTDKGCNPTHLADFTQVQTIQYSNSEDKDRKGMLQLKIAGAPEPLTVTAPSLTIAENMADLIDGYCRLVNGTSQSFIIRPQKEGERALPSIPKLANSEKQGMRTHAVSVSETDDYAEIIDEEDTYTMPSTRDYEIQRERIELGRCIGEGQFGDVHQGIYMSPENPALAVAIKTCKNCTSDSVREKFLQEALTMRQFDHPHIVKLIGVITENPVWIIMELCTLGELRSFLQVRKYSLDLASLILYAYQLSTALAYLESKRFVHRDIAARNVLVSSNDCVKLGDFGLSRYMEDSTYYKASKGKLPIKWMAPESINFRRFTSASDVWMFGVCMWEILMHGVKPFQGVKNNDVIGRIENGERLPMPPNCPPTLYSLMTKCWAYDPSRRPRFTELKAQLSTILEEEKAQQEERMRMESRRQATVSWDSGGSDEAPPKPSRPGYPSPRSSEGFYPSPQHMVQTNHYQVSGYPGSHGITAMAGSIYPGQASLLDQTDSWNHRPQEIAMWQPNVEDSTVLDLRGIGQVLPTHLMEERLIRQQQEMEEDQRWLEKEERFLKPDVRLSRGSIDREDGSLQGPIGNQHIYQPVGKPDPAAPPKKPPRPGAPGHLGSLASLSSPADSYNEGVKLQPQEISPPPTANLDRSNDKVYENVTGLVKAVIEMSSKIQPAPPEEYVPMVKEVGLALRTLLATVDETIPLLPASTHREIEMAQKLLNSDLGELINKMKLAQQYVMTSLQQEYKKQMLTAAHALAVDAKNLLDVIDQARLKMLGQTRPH
Described as above. The format is biochemical. To be noted: 1 μM. In short, it runs like this:
(§5)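 Mobility-shift readout (Caliper Desktop Profiler): substrate and phosphopeptide resolved electrophoretically from fluorescent label. Compounds tested at a single concentration, 90 min at 25 °C with labelled peptide and ATP. Percent inhibition relative to no-inhibitor and no-ATP wells.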

In assay [3] the target is T2, Flt3(D835Y)(h) (Homo sapiens, UniProt P36888, D835Y).
T2 construct: purchased Caliper Life Sciences
T2 sequence (P36888 27-993 D835Y): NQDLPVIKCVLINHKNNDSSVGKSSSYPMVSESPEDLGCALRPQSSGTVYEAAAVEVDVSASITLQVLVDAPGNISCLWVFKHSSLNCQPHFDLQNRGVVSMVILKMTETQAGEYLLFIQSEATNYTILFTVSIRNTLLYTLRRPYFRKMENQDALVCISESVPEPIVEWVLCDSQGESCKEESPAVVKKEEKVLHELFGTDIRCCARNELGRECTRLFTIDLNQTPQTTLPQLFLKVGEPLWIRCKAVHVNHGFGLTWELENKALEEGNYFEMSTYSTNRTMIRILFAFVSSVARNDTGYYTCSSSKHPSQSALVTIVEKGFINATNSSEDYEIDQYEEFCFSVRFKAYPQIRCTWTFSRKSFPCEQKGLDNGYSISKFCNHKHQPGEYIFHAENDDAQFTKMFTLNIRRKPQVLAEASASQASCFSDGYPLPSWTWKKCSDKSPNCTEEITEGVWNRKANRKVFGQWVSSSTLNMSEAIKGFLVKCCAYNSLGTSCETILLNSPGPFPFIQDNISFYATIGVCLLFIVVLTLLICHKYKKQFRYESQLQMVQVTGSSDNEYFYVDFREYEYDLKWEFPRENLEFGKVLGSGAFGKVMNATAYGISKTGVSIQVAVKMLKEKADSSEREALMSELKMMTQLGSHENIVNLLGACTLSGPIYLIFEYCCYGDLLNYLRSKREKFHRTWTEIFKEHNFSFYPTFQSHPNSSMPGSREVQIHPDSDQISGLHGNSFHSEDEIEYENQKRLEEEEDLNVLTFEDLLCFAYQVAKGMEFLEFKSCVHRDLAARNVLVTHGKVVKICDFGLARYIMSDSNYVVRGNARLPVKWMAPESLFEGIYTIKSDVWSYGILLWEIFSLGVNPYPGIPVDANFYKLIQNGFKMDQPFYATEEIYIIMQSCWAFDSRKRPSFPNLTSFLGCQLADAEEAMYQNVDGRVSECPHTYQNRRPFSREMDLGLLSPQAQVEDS
The assay is described as above. It is filed as biochemical. To be noted: 1 μM. In short, it runs like this: as §5

The target of assay [4] is T3, MNK-1 (Homo sapiens, UniProt Q9BUB5).
T3 construct: purchased Caliper Life Sciences
T3 sequence (Q9BUB5 whole entry, species assumed): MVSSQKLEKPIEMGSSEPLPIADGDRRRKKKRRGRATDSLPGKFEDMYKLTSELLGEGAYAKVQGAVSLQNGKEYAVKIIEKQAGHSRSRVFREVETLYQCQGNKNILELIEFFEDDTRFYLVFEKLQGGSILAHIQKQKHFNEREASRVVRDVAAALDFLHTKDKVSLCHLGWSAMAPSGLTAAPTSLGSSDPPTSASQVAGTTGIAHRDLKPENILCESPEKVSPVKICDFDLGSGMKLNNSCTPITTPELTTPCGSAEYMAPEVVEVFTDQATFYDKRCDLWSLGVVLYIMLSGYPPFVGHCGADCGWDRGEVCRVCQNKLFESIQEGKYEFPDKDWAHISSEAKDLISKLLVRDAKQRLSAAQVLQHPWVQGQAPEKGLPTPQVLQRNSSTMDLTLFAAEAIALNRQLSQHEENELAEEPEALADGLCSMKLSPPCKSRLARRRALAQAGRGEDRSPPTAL
Kind of assay: Other kinases, inhibition at 1 μM (Table 3). It is filed as biochemical. As to the method: as §1, §2, §3, §4

For assay [5], the target named is T4, IKK-beta (Homo sapiens, UniProt O14920).
T4 construct: purchased Caliper Life Sciences
T4 sequence (O14920 whole entry, species assumed): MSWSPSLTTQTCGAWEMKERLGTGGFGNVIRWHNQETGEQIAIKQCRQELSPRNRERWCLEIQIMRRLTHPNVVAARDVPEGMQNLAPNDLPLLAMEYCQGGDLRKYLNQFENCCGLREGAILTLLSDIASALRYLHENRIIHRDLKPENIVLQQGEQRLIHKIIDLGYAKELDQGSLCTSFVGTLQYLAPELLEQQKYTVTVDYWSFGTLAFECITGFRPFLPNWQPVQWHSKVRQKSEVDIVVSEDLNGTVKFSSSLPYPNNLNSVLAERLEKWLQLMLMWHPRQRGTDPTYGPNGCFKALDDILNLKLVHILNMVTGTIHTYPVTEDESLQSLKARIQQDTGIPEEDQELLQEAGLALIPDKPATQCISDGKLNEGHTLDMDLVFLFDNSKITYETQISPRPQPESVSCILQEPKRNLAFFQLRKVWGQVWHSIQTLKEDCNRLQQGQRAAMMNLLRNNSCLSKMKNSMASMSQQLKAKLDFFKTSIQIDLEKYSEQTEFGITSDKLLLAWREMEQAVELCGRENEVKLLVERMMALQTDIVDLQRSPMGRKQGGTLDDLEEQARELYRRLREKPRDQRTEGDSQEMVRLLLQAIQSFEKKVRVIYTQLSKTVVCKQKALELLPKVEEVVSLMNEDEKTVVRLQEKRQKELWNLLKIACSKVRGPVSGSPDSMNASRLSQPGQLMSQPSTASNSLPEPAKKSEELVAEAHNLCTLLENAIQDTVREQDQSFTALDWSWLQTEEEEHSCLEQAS
Kind of assay: Other kinases, inhibition at 1 μM (Table 3). It is filed as biochemical. Here is the method:
as §1, §2, §3, §4

Assay [6] addresses T5, ROCK-II (Homo sapiens, UniProt O75116).
T5 construct: purchased Caliper Life Sciences
Kind of assay: Other kinases, inhibition at 1 μM (Table 3). It is filed as biochemical. As to the method:
as §1, §2, §3, §4

In assay [7] the target is T6, MKK1 (Homo sapiens, UniProt Q02750).
T6 construct: purchased Caliper Life Sciences
Kind of assay: Other kinases, inhibition at 1 μM (Table 3). The format is biochemical. Here is the method: as §1, §2, §3, §4

Assay [8] has as its target T7, IKK-epsilon (Homo sapiens, UniProt Q14164).
T7 construct: purchased Caliper Life Sciences
Kind of assay: Other kinases, inhibition at 1 μM (Table 3). It is filed as biochemical. As to the method: as §1, §2, §3, §4

Assay [9] addresses T8, MST2 (Homo sapiens, UniProt Q13188).
T8 construct: purchased Caliper Life Sciences
Kind of assay: Other kinases, inhibition at 1 μM (Table 3). The format is biochemical. Here is the method: as §1, §2, §3, §4

The target of assay [10] is T9, FGFR1 (Homo sapiens, UniProt P11362).
T9 construct: purchased Caliper Life Sciences
Kind of assay: Other kinases, inhibition at 1 μM (Table 3). The format is biochemical. Here is the method: as §1, §2, §3, §4

In assay [11] the target is T10, PKC-alpha (Homo sapiens, UniProt P17252).
T10 construct: purchased Caliper Life Sciences
Kind of assay: Other kinases, inhibition at 1 μM (Table 3). The format is biochemical. As to the method: as §1, §2, §3, §4

Assay [12] concerns MAPK8. Kind of assay: Other kinases, inhibition at 1 μM (Table 3). The format is biochemical. Here is the method: as §1, §2, §3, §4
Assay [13] has as its target T11, MAPK2 (Homo sapiens, UniProt P28482).
T11 construct: purchased Caliper Life Sciences
Kind of assay: Other kinases, inhibition at 1 μM (Table 3). The format is biochemical. Here is the method: as §1, §2, §3, §4

The target in assay [14] is T12, CAMKI (Homo sapiens, UniProt Q14012).
T12 construct: purchased Caliper Life Sciences
Kind of assay: Other kinases, inhibition at 1 μM (Table 3). The format is biochemical. As to the method: as §1, §2, §3, §4

Assay [15] addresses T13, YES1 (Homo sapiens, UniProt P07947).
T13 construct: purchased Caliper Life Sciences
Kind of assay: Other kinases, inhibition at 1 μM (Table 3). It is filed as biochemical. Here is the method:
as §1, §2, §3, §4

The target in assay [16] is T14, Syk (Homo sapiens, UniProt P43405).
T14 construct: purchased Caliper Life Sciences
Kind of assay: Other kinases, inhibition at 1 μM (Table 3). It is filed as biochemical. Here is the method: as §1, §2, §3, §4

For assay [17], the target named is T15, MELK (Homo sapiens, UniProt Q14680).
T15 construct: purchased Caliper Life Sciences
Kind of assay: Other kinases, inhibition at 1 μM (Table 3). The format is biochemical. Here is the method: as §1, §2, §3, §4

Assay [18] addresses T16, MAPKAP-K1-alpha (Homo sapiens, UniProt Q15418).
T16 construct: purchased Caliper Life Sciences
Kind of assay: Other kinases, inhibition at 1 μM (Table 3). It is filed as biochemical. Here is the method: as §1, §2, §3, §4

Assay [19] concerns the target T17, TBK1 (Homo sapiens, UniProt Q9UHD2).
T17 construct: purchased Caliper Life Sciences
Kind of assay: Other kinases, inhibition at 1 μM (Table 3). The format is biochemical. As to the method: as §1, §2, §3, §4

The target in assay [20] is T18, MAPKAP-K1-beta (Homo sapiens, UniProt P51812).
T18 construct: purchased Caliper Life Sciences
T18 sequence (P51812 whole entry): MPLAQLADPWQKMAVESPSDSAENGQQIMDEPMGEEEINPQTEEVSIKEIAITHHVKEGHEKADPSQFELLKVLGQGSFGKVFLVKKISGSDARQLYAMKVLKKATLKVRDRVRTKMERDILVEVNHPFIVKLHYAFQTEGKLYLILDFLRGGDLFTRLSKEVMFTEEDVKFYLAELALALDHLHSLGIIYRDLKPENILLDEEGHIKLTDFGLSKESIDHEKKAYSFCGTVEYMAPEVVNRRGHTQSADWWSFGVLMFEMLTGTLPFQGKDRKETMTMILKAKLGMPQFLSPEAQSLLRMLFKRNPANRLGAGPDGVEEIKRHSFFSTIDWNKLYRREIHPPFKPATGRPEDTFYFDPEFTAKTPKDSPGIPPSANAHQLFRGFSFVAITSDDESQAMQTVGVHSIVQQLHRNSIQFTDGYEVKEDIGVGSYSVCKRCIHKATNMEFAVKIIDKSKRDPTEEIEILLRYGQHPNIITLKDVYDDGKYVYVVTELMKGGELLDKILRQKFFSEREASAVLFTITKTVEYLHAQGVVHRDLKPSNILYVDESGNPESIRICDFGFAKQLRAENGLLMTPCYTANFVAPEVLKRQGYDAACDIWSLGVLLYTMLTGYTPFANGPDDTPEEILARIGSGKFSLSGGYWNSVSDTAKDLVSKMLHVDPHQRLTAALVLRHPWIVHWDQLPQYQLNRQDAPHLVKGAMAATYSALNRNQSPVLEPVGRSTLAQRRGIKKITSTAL
Kind of assay: Other kinases, inhibition at 1 μM (Table 3). The format is biochemical. As to the method: as §1, §2, §3, §4

Assay [21] has as its target T19, SRC (Homo sapiens, UniProt P12931).
T19 construct: purchased Caliper Life Sciences
Kind of assay: Other kinases, inhibition at 1 μM (Table 3). The format is biochemical. As to the method:
as §1, §2, §3, §4

T7 sequence (Q14164 whole entry, species assumed): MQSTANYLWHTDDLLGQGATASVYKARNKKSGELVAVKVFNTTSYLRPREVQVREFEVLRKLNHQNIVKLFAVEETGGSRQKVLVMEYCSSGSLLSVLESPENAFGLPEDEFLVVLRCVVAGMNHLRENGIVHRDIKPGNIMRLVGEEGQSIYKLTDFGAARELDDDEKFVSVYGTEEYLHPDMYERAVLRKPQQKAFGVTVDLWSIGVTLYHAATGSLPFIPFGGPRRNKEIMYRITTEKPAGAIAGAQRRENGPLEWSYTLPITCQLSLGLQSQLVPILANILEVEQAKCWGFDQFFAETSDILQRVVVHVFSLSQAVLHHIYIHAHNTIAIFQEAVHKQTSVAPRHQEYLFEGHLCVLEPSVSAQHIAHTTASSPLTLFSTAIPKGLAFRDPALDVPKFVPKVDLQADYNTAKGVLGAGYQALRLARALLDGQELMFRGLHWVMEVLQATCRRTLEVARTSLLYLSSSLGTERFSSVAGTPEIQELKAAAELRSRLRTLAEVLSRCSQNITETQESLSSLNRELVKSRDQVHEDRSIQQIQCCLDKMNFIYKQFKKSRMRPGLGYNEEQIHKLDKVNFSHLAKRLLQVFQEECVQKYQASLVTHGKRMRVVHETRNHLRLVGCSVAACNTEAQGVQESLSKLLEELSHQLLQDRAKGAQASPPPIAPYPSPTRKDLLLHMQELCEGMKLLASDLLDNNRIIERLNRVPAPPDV
T13 sequence (P07947 whole entry, species assumed): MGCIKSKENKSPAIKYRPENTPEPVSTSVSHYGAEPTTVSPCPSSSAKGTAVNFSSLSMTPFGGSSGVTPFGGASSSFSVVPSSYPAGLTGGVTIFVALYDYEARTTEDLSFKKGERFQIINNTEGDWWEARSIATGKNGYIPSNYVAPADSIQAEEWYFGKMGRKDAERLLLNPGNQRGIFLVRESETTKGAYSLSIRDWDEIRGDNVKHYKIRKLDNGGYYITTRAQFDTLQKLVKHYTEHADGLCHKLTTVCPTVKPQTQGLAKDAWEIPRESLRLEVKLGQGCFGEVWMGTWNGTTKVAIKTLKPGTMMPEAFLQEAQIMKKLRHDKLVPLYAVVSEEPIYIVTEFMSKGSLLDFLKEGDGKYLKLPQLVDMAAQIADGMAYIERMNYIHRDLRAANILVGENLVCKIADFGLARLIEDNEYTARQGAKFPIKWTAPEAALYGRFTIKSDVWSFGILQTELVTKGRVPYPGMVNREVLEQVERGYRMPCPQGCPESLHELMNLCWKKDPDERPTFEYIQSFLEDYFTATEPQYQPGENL
T17 sequence (Q9UHD2 whole entry, species assumed): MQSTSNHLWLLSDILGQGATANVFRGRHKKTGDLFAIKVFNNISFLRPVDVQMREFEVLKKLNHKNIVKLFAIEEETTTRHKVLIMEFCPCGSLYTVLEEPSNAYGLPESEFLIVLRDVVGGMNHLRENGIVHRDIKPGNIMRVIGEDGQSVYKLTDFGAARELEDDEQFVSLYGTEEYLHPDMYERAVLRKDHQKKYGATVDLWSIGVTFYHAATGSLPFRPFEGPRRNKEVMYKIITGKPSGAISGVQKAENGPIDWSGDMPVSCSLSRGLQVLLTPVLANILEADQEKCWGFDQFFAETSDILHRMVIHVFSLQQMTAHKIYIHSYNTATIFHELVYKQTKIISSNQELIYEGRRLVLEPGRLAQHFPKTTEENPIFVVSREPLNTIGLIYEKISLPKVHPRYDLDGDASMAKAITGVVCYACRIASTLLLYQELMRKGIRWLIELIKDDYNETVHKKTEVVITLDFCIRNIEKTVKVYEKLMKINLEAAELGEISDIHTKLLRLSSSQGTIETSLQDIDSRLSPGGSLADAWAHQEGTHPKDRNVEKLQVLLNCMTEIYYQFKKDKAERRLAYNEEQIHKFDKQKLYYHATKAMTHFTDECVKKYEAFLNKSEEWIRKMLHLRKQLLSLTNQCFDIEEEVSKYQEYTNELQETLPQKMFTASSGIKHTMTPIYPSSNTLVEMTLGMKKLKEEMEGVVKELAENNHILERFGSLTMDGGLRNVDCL

For the compound `CN1CCN(c2ccc3cc2OCCS[C@@H]2C[C@@H]4C[C@H]2[C@@H](Nc2nc(ncc2F)N3)[C@H]4C(N)=O)CC1` [Example 22], the “% inhibition AMPK(r)” value in assay [1] was 65%. For the same compound, in assay [2], the “% inhibition FAK(h)” value was 30%. Also, the “% inhibition Flt3(D835Y)(h)” value in assay [3] turned out to be 3%.
Taken in the same sequence, the figures for `CC[C@@H]1C[C@@H]2/C=C\COc3cccc(c3)Nc3ncc(F)c(n3)N[C@H]2[C@H]1C(N)=O` (single isomer, unassigned) [Example 6] were 51%, 81% and 33%.
`Fc1cnc2nc1NC1CCCC(C1)OC/C=C\COc1cccc(c1)N2` (single isomer, unassigned) [Example 33, (16Z)-6-fluoro-14,19-dioxa-2,4,8,26-tetraazatetracyclo[18.3.1.1˜3,7˜0.1˜9,13˜]hexacosa-1(24),3(26),4,6,16,20,22-heptaene]: the “% inhibition MNK-1” value in [4] is 95%. Besides, the inhibition (as a rule, the percentage by which the read-out fell short of the control) at 1 µM in [5] stood at 78%; in [6], 79%; in assay [8] it was 91%; in assay [10] it was 74%; in [15], 49%; in assay [16] it was 84%. Also, the inhibition at 1 µM in assay [19] is 97%; in [21] it was 58%. For the same compound, the “% inhibition MKK1” value in assay [7] is listed as 71%. Also, in [9], the “% inhibition MST2” value was 61%. The “% inhibition PKC-alpha” value in assay [11] stood at 57%. In assay [12], the “% inhibition MAPK8” value came to 61%. Also, in [13], the “% inhibition MAPK2” value is 79%. The “% inhibition CAMKI” value in [14] stood at 93%. For the same compound, the “% inhibition MELK” value in [17] was determined as 101%. Besides, the “% inhibition MAPKAP-K1-alpha” value in assay [18] is 56%. Moreover, the “% inhibition MAPKAP-K1-beta” value in assay [20] is 68%.
On to `C=C[C@@H]1C[C@@H]2/C=C/COc3cccc(c3)Nc3ncc(F)c(n3)N[C@H]2[C@H]1C(N)=O` (single isomer, unassigned) [Example 3], for which, in [1], the “% inhibition AMPK(r)” value is on record as 92%. Further, the “% inhibition FAK(h)” value in assay [2] is 86%. Also, in [3], the “% inhibition Flt3(D835Y)(h)” value is reported as 77%.
For the compound `NC(=O)[C@H]1[C@H]2C[C@H]3[C@H]1Nc1nc(ncc1F)Nc1cccc(c1)NC(=O)CS[C@@H]3C2` [Example 27], the “% inhibition AMPK(r)” value in assay [1] amounted to 71%. Further, the “% inhibition FAK(h)” value in [2] turned out to be 41%. For the same compound, the “% inhibition Flt3(D835Y)(h)” value in [3] is reported as 12%.
Regarding `N#Cc1ccc2cc1NC(=O)CS[C@@H]1C[C@@H]3C[C@H]1[C@@H](Nc1nc(ncc1F)N2)[C@H]3C(N)=O` [Example 26], the “% inhibition AMPK(r)” value in [1] was determined as 79%. For the same compound, in [2], the “% inhibition FAK(h)” value worked out at 35%. Further, in [3], the “% inhibition Flt3(D835Y)(h)” value turned out to be 57%.
